This series is described as follows: Solubility of cyclodextrins in an aqueous gelatin/glycerin solution. Type of series: physicochemical. How it is done: The solubility of β-, γ and hydroxypropyl-β-(HPβ) cyclodextrin in the solution containing gelatin was verified. This study was conducted by dissolving quantities of 2.5% or of 5% (W/V) of β-, γ or hydroxypropyl-β-(HPβ) cyclodextrin in an aqueous solution containing 36% (W/W) of gelatin and 15% (W/W) of anhydrous glycerin.

The mark [1] stands for this setting: 5% (W/V) cyclodextrin in aqueous solution containing 36% (W/W) gelatin and 15% (W/W) anhydrous glycerin.

For `OC[C@H]1O[C@@H]2O[C@H]3[C@H](O)[C@@H](O)[C@@H](O[C@H]4[C@H](O)[C@@H](O)[C@@H](O[C@H]5[C@H](O)[C@@H](O)[C@@H](O[C@H]6[C@H](O)[C@@H](O)[C@@H](O[C@H]7[C@H](O)[C@@H](O)[C@@H](O[C@H]8[C@H](O)[C@@H](O)[C@@H](O[C@H]1[C@H](O)[C@H]2O)O[C@@H]8CO)O[C@@H]7CO)O[C@@H]6CO)O[C@@H]5CO)O[C@@H]4CO)O[C@@H]3CO` [β-cyclodextrin], the “solubility in the solution containing gelatin” value (“solubility” below) runs as follows: (2.5% (W/V) cyclodextrin in aqueous solution containing 36% (W/W) gelatin and 15% (W/W) anhydrous glycerin) “soluble”; under setting [1], “opalescent mixture”.

For the molecule `OC[C@H]1O[C@@H]2O[C@H]3[C@H](O)[C@@H](O)[C@@H](O[C@H]4[C@H](O)[C@@H](O)[C@@H](O[C@H]5[C@H](O)[C@@H](O)[C@@H](O[C@H]6[C@H](O)[C@@H](O)[C@@H](O[C@H]7[C@H](O)[C@@H](O)[C@@H](O[C@H]8[C@H](O)[C@@H](O)[C@@H](O[C@H]9[C@H](O)[C@@H](O)[C@@H](O[C@H]1[C@H](O)[C@H]2O)O[C@@H]9CO)O[C@@H]8CO)O[C@@H]7CO)O[C@@H]6CO)O[C@@H]5CO)O[C@@H]4CO)O[C@@H]3CO` [γ-cyclodextrin], the “solubility” value under setting [1] is reported as “soluble”.

As to hydroxypropyl-β-cyclodextrin, the “solubility” value under setting [1] is listed as “soluble”.
